Key:
[1] = molecular target: T1, Nuclear receptor ROR-gamma (Homo sapiens, UniProt P51449)
T1 sequence (P51449 whole entry): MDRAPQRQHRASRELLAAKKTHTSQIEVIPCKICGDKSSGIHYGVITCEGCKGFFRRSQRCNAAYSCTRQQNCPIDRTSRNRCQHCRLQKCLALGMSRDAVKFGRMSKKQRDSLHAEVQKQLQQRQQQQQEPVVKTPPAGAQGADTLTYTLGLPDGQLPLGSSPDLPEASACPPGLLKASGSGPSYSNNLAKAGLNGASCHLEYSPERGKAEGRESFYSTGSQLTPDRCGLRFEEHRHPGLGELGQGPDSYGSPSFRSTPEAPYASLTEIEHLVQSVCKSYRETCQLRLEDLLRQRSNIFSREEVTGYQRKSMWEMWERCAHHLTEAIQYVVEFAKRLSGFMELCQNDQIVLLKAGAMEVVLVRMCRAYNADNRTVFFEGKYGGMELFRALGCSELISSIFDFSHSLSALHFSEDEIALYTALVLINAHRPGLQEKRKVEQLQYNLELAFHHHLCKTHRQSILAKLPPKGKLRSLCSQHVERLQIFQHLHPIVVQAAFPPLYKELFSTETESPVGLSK
Description: Displacement of [3H2]-25-hydroxycholesterol from N-terminal 6xHis-tagged human RORc ligand binding domain (241 to 486) expressed in bacterial expression system after 3 hrs by scintillation counting analysis

[2] = molecular target: T1, Nuclear receptor ROR-gamma; type: functional
PBMC [3] = assay: Cytotoxicity against human PBMC assessed as effect on cell physiology after 48 hrs by CellTiter-Glo assay; type: cell-based
PBMC [4] = assay: Induction of IL17 production in human PBMC cells after 48 hrs by sandwich ELISA method; type: functional, cell-based
[5] = molecular target: T1, Nuclear receptor ROR-gamma; type: functional; remark: listed apart in the source
PBMC [6] = assay: Effect on IFNgamma production in human PBMC cells after 48 hrs by sandwich ELISA method; type: functional, cell-based
PBMC [7] = assay: Induction of IL17 production in human PBMC cells after 48 hrs by sandwich ELISA method relative to control; type: functional
PBMC [8] = assay: Inhibition of IL17 production in human PBMC cells after 48 hrs by sandwich ELISA method; type: functional, cell-based
PBMC [9] = assay: Inhibition of IL17 production in human PBMC cells after 48 hrs by sandwich ELISA method relative to control; type: functional
[10] = molecular target: T2, Nuclear receptor subfamily 1 group I member 2 (Homo sapiens, UniProt O75469); assay: Agonist activity at GAL4-fused human PXR expressed in HEK293T cells assessed as activation of basal transcriptional activity after 20 hrs by dual-glo luciferase reporter gene assay; type: cell-based; conditions: hek-293t
T2 sequence (O75469 whole entry): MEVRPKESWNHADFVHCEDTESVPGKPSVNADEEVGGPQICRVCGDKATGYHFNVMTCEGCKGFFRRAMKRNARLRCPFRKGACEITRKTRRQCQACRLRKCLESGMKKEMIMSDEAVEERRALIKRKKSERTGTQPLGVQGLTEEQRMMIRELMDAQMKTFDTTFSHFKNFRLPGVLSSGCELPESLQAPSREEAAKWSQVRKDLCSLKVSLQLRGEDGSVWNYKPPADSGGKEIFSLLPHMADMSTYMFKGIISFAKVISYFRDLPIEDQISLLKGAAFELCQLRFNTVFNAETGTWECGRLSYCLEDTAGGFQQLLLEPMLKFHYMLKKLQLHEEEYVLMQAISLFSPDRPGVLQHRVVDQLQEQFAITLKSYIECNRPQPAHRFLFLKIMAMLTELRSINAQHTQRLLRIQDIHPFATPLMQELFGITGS

Bile acid receptor = molecular target: T3, Bile acid receptor (Homo sapiens, UniProt Q96RI1); assay: Antagonist activity at GAL4-fused human FXR expressed in HEK293T cells assessed as inhibition of agonist-induced transcriptional activity after 20 hrs by dual-glo luciferase reporter gene assay
T3 sequence (Q96RI1 whole entry): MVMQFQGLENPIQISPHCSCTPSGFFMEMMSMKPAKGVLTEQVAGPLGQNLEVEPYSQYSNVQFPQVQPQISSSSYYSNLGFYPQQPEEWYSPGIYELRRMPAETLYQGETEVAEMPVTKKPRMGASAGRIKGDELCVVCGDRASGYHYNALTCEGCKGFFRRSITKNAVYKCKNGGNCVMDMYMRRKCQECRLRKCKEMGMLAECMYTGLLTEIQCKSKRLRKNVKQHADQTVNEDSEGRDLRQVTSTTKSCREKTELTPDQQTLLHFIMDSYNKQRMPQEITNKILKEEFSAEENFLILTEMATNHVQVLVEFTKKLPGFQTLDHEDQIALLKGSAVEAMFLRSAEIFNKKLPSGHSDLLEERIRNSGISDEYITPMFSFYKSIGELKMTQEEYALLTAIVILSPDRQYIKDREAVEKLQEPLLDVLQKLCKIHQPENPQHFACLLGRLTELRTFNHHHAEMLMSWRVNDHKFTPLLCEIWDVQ

[11] = molecular target: T4, Nuclear receptor ROR-beta (Homo sapiens, UniProt Q92753); assay: Inverse agonist activity at GAL4-fused human RORb expressed in HEK293T cells assessed as suppression of basal transcriptional activity after 20 hrs by dual-glo luciferase reporter gene assay; type: cell-based, HEK-293T
T4 sequence (Q92753 whole entry): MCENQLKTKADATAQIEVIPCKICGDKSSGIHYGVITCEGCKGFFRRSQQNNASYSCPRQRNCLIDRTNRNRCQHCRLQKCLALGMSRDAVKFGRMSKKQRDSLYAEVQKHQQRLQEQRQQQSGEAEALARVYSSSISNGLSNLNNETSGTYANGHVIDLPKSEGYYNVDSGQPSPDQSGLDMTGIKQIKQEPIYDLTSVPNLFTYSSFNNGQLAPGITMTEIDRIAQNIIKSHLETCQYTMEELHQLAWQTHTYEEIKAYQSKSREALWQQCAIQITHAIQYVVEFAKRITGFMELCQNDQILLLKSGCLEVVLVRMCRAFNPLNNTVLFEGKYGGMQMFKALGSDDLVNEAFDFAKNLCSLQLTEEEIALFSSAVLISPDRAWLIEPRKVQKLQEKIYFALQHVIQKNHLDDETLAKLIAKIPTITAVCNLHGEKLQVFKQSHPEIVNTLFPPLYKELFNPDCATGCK

[12] = molecular target: T5, Oxysterols receptor LXR-alpha (Homo sapiens, UniProt Q13133); assay: Antagonist activity at GAL4-fused human LXRalpha expressed in HEK293T cells assessed as inhibition of agonist-induced transcriptional activity after 20 hrs by dual-glo luciferase reporter gene assay
T5 sequence (Q13133 whole entry): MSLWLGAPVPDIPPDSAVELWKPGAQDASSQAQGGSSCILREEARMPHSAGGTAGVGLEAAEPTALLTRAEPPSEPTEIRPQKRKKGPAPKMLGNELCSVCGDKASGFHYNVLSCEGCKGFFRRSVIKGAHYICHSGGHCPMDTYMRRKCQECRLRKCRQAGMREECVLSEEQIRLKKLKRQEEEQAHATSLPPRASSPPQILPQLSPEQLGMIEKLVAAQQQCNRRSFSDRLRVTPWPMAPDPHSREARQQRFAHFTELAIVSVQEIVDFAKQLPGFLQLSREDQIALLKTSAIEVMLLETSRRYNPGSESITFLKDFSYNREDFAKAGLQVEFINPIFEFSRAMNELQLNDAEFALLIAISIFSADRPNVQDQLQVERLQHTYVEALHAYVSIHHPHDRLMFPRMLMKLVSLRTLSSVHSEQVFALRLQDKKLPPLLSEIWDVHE

[13] = molecular target: T1, Nuclear receptor ROR-gamma; assay: Inverse agonist activity at GAL4-fused human RORc expressed in HEK293T cells assessed as suppression of basal transcriptional activity after 20 hrs by dual-glo luciferase reporter gene assay; type: functional, cell-based, HEK-293T

EC50 [2]	EC50 [5]	Structure (SMILES)	other results
33 nM		CC(=O)N1CCN(c2ccc(CN(C3CCC3)S(=O)(=O)Cc3ccc(Cl)cc3)c(F)c2)CC1	IC50 [1]: 37 nM
	69 nM	CC(=O)N1CCN(c2ccc(CN(C3CCC3)S(=O)(=O)c3ccccc3)c(F)c2)CC1	EC50 (PBMC [3]): > 20000 nM; EC50 (PBMC [4]): 780 nM; EC50 (PBMC [6]): > 10000 nM; Efficacy (PBMC [7]): 77%
11 nM		CC(=O)N1CCN(c2ccc(CN(C3CCC3)S(=O)(=O)Cc3ccccc3)c(F)c2)CC1	EC50 (PBMC [8]): 350 nM; EC50 (PBMC [3]): > 20000 nM; Efficacy (PBMC [9]): -79%; EC50 (PBMC [6]): > 10000 nM
310 nM		CC(=O)N1CCN(c2ccc(CN(C3CCC3)S(=O)(=O)CCc3ccccc3)c(F)c2)CC1	
	63 nM	CC(=O)N1CCN(c2ccc(CN(C3CCC3)S(=O)(=O)c3ccccc3F)c(F)c2)CC1	EC50 (PBMC [3]): > 20000 nM; EC50 (PBMC [4]): 800 nM; EC50 (PBMC [6]): > 10000 nM; Efficacy (PBMC [7]): 71%
3 nM		CC(=O)N1CCN(c2ccc(CN(C3CCC3)S(=O)(=O)Cc3ccccc3F)c(F)c2)CC1	EC50 (PBMC [8]): 320 nM; Activity [10]: Not Active; EC50 (PBMC [3]): > 20000 nM; Efficacy (PBMC [9]): -72%; EC50 (Bile acid receptor): 6100 nM; EC50 (PBMC [6]): > 10000 nM; EC50 [11]: 2700 nM; EC50 [12]: 9200 nM; EC50 [13]: 15 nM
	41 nM	CC(=O)N1CCN(c2ccc(CN(C3CCC3)S(=O)(=O)c3cccc(F)c3)c(F)c2)CC1	
10 nM		CC(=O)N1CCN(c2ccc(CN(C3CCC3)S(=O)(=O)Cc3cccc(F)c3)c(F)c2)CC1	
> 10000 nM		CC(=O)N1CCN(c2ccc(CN(C3CCC3)S(=O)(=O)c3ccc(F)cc3)c(F)c2)CC1	
7 nM		CC(=O)N1CCN(c2ccc(CN(C3CCC3)S(=O)(=O)Cc3ccc(F)cc3)c(F)c2)CC1	
	47 nM	CC(=O)N1CCN(c2ccc(CN(C3CCC3)S(=O)(=O)c3ccccc3Cl)c(F)c2)CC1	
4 nM		CC(=O)N1CCN(c2ccc(CN(C3CCC3)S(=O)(=O)Cc3ccccc3Cl)c(F)c2)CC1	
	50 nM	CC(=O)N1CCN(c2ccc(CN(C3CCC3)S(=O)(=O)c3cccc(Cl)c3)c(F)c2)CC1	
9 nM		CC(=O)N1CCN(c2ccc(CN(C3CCC3)S(=O)(=O)Cc3cccc(Cl)c3)c(F)c2)CC1	
190 nM		CC(=O)N1CCN(c2ccc(CN(C3CCC3)S(=O)(=O)c3ccc(Cl)cc3)c(F)c2)CC1	
	6 nM	CC(=O)N1CCN(c2ccc(CN(C3CCC3)S(=O)(=O)c3cc(Cl)cc(Cl)c3)c(F)c2)CC1	
40 nM		CC(=O)N1CCN(c2ccc(CN(C3CCC3)S(=O)(=O)Cc3cc(Cl)cc(Cl)c3)c(F)c2)CC1	
	14 nM	CC(=O)N1CCN(c2ccc(CN(C3CCC3)S(=O)(=O)c3cc(F)cc(F)c3)c(F)c2)CC1	
	26 nM	COc1cccc(S(=O)(=O)N(Cc2ccc(N3CCN(C(C)=O)CC3)cc2F)C2CCC2)c1	
3300 nM		COc1ccc(S(=O)(=O)N(Cc2ccc(N3CCN(C(C)=O)CC3)cc2F)C2CCC2)cc1	
220 nM		CC(=O)N1CCN(c2ccc(CN(C3CCC3)S(=O)(=O)c3ccc(Cl)cc3Cl)c(F)c2)CC1	
150 nM		CC(=O)N1CCN(c2ccc(CN(C3CCC3)S(=O)(=O)c3ccc(OC(F)F)cc3)c(F)c2)CC1	IC50 [1]: 31 nM
160 nM		CC(=O)N1CCN(c2ccc(CN(C3CCC3)S(=O)(=O)c3ccc(OC(F)(F)F)cc3)c(F)c2)CC1	
300 nM		CC(=O)N1CCN(c2ccc(CN(C3CCC3)S(=O)(=O)c3ccc(C(F)(F)F)cc3)c(F)c2)CC1	
120 nM		CC(=O)N1CCN(c2ccc(CN(C3CCC3)S(=O)(=O)c3ccc(C(C)(C)C)cc3)c(F)c2)CC1	
